Converted amounts (≈) assume the structure as drawn. Marks after values point to notes of the source that are not given here.
Tests used:
[1] = test system: S. littoralis; test: Anti-feeding activity on leaf disks (% FI); format: in vivo, Spodoptera littoralis; details: compounds at 50 μg/cm^2
Experimental: (§1) Breeding and maintenance of the insects was carried out in a temperature-controlled chamber at 24±1° C., 60-70% relative humidity and a photoperiod of 16:8 hours (light:darkness). Larvae of S. littoralis were maintained on a semisynthetic diet (Poitut and Bues. 1970. Ann. Zool. Ecol. Anim. 2, 79-91) and aphids M. persicae and Rhopalosiphum padi on their host plants, pepper—Capsicum annuum L.—and barley—Hordeum vulgare L.—respectively. Tests on anti-feeding activity were carried out with newly hatched larvae of the sixth stage of S. littoralis and wingless adult aphids. The upper surface of leaf disks (1.0 cm^2) of the pepper (Capsicum annuum L.) were treated with 10 μl of a solution (10 mg/ml for extracts and 5 mg/ml for pure products). […] Once consumed 75% of the surface of the control dishes (S. littoralis) or after 24 h (M. persicae or R. padi) the consumption (% FI) or settlement index (% SI), was calculated respectively. % FI=[1−(T/C)×100], where T and C are the consumption of treated leaves discs and control; % SI=[1−(% T/C %)] where % C and % T are the percentage of aphids settled on the discs of control and treated leaves (Burgueño et al. 2008. J. Chem. Ecol. 34, 766-771). […]

[2] = test system: M. persicae; test: Aphid settlement inhibition on leaf disks (% SI); format: in vivo, Myzus persicae; details: for M. persicae % SI: compounds at 50 μg/cm^2, 24 h; for EC50 (M. persicae): dose-response, settlement inhibition, limits in brackets
Experimental: Breeding and maintenance of the insects was carried out in a temperature-controlled chamber at 24±1° C., 60-70% relative humidity and a photoperiod of 16:8 hours (light:darkness). Larvae of S. littoralis were maintained on a semisynthetic diet (Poitut and Bues. 1970. Ann. Zool. Ecol. Anim. 2, 79-91) and aphids M. persicae and Rhopalosiphum padi on their host plants, pepper—Capsicum annuum L.—and barley—Hordeum vulgare L.—respectively. Tests on anti-feeding activity were carried out with newly hatched larvae of the sixth stage of S. littoralis and wingless adult aphids. The upper surface of leaf disks (1.0 cm^2) of the pepper (Capsicum annuum L.) were treated with 10 μl of a solution (10 mg/ml for extracts and 5 mg/ml for pure products). Each test consisted of 5 Petri dishes with two (S. littoralis) larvae per dish or twenty boxes (2×2 cm) with ten M. persicae or R. padi aphids incubated in a growth chamber under the same conditions described for the breeding of the insects. Once consumed 75% of the surface of the control dishes (S. littoralis) or after 24 h (M. persicae or R. padi) the consumption (% FI) or settlement index (% SI), was calculated respectively. % FI=[1−(T/C)×100], where T and C are the consumption of treated leaves discs and control; % SI=[1−(% T/C %)] where % C and % T are the percentage of aphids settled on the discs of control and treated leaves (Burgueño et al. 2008. J. Chem. Ecol. 34, 766-771). Compounds with an FI/SI>70% were tested in a dose-response experiment to calculate its relative potency (EC50, being the effective dose for a reduction of 50% of feeding).

[3] = test system: Botrytis cinerea; test: Antifungal activity, agar dilution, mycelial growth inhibition; format: cell-based; details: for inhibition at 500 µg/mL: 0.5 mg/ml, 48 h
Experimental: (§2) Phytopathogenic fungi Fusarium moniliforme (Sheldon) [CECT 2152] F. oxysporum fs. lycopersici ([…] 2715] and F. solani (Mart) [CECT 2199] come from the Spanish Type Culture Collection (CECT). The strain Botrytis cinerea Pers.:Fr. (B05.10) is a donation from the Biochemistry Department at the University of La Laguna (ULL). For their maintenance the strains were grown on solid commercial medium PDA at 25° C. […] To determine the antifungal activity, the agar dilution method was used (Murabayashi et al. 1991. J. Pesticide Sci. 16, 419-427). […] In parallel, controls were prepared with ethanol at a concentration of 2%. […] Colonies grown in petri dishes and incubated for 48 h were digitized and measured using the ImageJ 1.43 software. The percentage of inhibition (% I) was calculated as: % I=(C-T/C)×100, where C is the diameter of control colonies and T of the colonies of the tested samples. The growth inhibition effective dose (EC50) was determined by linear regression analysis (% of inhibition of dose log).

[4] = test system: M. javanica; test: Nematicidal activity on infective juveniles (J2); format: in vivo, Meloidogyne javanica; details: J2, 72 h
Experimental: The nematode population (M. javanica) was maintained in growth chambers on tomato plants—Lycopersicon esculentum (var Marmande)—at 25° C. and a relative humidity of 70%. The tests were carried out according to the methodology described for M. javanica (Andres et al. 2012. Phytochem. Rev. 11, 371-390) using the biological stage of infective juveniles (J2). […] Each treatment was repeated four times and nematicidal activity was determined from the percentage of infective juveniles dead after 72 h. In cases in which a mortality rate of >99% was determined, dose-response experiments were carried out to determine LC50 and LC90.

[5] = test system: Lactuca sativa; test: Phytotoxicity test on seeds (germination, root growth); details: for Germination (% C) 72 h / Growth (% C) Root: Lactuca sativa; for Germination (% C) 72 h / Growth (% C) Root / phytotoxic effects on germination and root development: in vivo; for Growth (% C) Root: 6 days
Experimental: […] 500 μl of distilled water and 10/5 seeds, were added to each well, and the plates were incubated in a growth chamber at 25° C., 70% relative humidity and a 16:08 L:D photoperiod. Seeds' germination was recorded for six days and the elongation of roots was assessed at the end of the experiment. The data were analysed by variance analysis (ANOVA).

[6] = test system: R. padi; test: Aphid settlement inhibition on leaf disks (% SI); format: in vivo, Rhopalosiphum padi; details: compounds at 50 μg/cm^2; 24 h
Experimental: as §1

[7] = test system: F. moniliforme; test: Antifungal activity, agar dilution, mycelial growth inhibition; format: cell-based, Fusarium moniliforme; details: Fusarium verticillioides; tested at 0.1 mg/ml (footnote a); 48 h
Experimental: as §2

[8] = test system: F. solani; test: as above; format: cell-based; details: Fusarium solani
Experimental: as §2

`CCCCCC1=CC(=O)[C@](O)(CCCC)[C@H](O)C1` (stereo in doubt) [Stempholone A, 6-butyl-5,6-dihydroxy-3-pentylcyclohex-2-en-1-one] was tested, and the “S. littoralis % FI” value [1] was 41.8 ± 7.9%, the “M. persicae % SI” value [2] was 81.42 ± 5.61% and the “EC50 (M. persicae)” value [2] was 0.15 (0.06-0.36)* μg/cm^2. For the same compound, the inhibition at 500 µg/mL [3] was 56.2 ± 1.5%, the EC50 ([3]; growth inhibition, linear regression, read-out: EC50 (95% CL) Botrytis cinerea) was 430 mg/L (≈ 1690 µM) and the “M. javanica % paralysed” value ([4]; 0.25 mg/ml) was 2.8 ± 0.5%. For the same compound, the “M. javanica % paralysed” value ([4]; 0.5 mg/ml) was 83.05 ± 3.15%, the “Germination (% C) 72 h” value ([5]; 5 μg/μl) was 97.50 ± 3.54^ % C and the “Growth (% C) Root” value ([5]; 5 μg/μl) was 230.26 ± 21.33 % C. For the same compound, the “phytotoxic effects on germination and root development” value [5] was “absence of phytotoxic effects”.

In the case of `CCCC[C@@]1(O)C(=O)C=C(CCCC(C)O)C[C@H]1O` (stereo in doubt) [Stempholone B, 6-butyl-5,6-dihydroxy-3-(4-hydroxypentyl)cyclohex-2-en-1-one], the “S. littoralis % FI” value [1] is reported as 52.9 ± 5.9%, the “M. persicae % SI” value [2] is reported as 83.87 ± 6.89% and the “EC50 (M. persicae)” value [2] is reported as 0.02 (0.003-0.15)* μg/cm^2. The “R. padi % SI” value [6] was 45.13 ± 9.09%, the inhibition at 100 µg/mL [7] was 4.2% and the inhibition at 500 µg/mL [3] was 11.9 ± 3.67%. For the same compound, the EC50 ([8]; growth inhibition, linear regression, read-out: EC50 (95% CL) F. solani) was 210 mg/L (≈ 777 µM), the inhibition at 100 µg/mL ([8]; tested at 0.1 mg/ml (footnote a), 48 h) was 49.9% and the “M. javanica % paralysed” value ([4]; 0.5 mg/ml) was 1.24 ± 0.9%. The “Germination (% C) 72 h” value ([5]; 5 μg/μl) was 100 ± 0.00 % C, the “Growth (% C) Root” value ([5]; 5 μg/μl) was 109.26 ± 9.57 % C and the “phytotoxic effects on germination and root development” value [5] was “absence of phytotoxic effects”.

For `O=C1C=CC(=O)c2c(O)cccc21` [juglone, reference compound], the germination ([5]; positive control of germination inhibition, 5 μg/μl) was “lower than 5%”.

Reference: patent US20180312880A1, “NATURAL BROAD-SPECTRUM BIOCIDES” (CONSEJO SUPERIOR DE INVESTIGACIONES CIENTÍFICAS, priority 2015, published 2018)
